In patent US12227514B2, “Crystal forms of thiophene derivatives” (TIANJIN HEMAY PHARMACEUTICAL CO., LTD., priority 2018, dated 2025):

Columns and labels:
Type in all cases: physicochemical
Illumination stability = experiment: Illumination stability
Protocol: Crystal form I of (S)—N-[5-[1-(3-ethoxy-4-methoxyphenyl)-2-(methylsulfonyl)ethyl]-4,6-dioxo-5,6-dihydro-4H-thieno[3,4-c]pyrrole-1-yl]acetamide was placed in a 4500 lux of illumination box for 1 month. Crystal form stability of (S)—N-[5-[1-(3-ethoxy-4-methoxyphenyl)-2-(methylsulfonyl)ethyl]-4,6-dioxo-5,6-dihydro-4H-thieno[3,4-c]pyrrole-1-yl]acetamide was tested after 1 month.

[1] = Pressure stability (tablet press, DSC); details: single punch tablet press, tablet diameter 6 mm, hardness 25-30 N
Protocol: Crystal form I of (S)—N-[5-[1-(3-ethoxy-4-methoxyphenyl)-2-(methylsulfonyl)ethyl]-4,6-dioxo-5,6-dihydro-4H-thieno[3,4-c]pyrrole-1-yl]acetamide was pressed by tablet press machine with single punch. The diameter of the tablet was 6 mm and the hardness was 25-30 N. DSC test was carried out on pressed powder.

[2] = Moisture absorption stability; details: RH=80%
Protocol: Crystal form I of (S)—N-[5-[1-(3-ethoxy-4-methoxyphenyl)-2-(methylsulfonyl)ethyl]-4,6-dioxo-5,6-dihydro-4H-thieno[3,4-c]pyrrole-1-yl]acetamide was placed in a drier containing saturated ammonium chloride solution (RH=80%) until weight was balanced. The crystal form stability of (S)—N-[5-[1-(3-ethoxy-4-methoxyphenyl)-2-(methylsulfonyl)ethyl]-4,6-dioxo-5,6-dihydro-4H-thieno[3,4-c]pyrrole-1-yl]acetamide was tested after weight was balanced.

[3] = Dissolution rate in water; details: about 25 mg in 900 mL water, 37° C., rotating speed 100/minute
Protocol: The crystal form I of (S)—N-[5-[1-(3-ethoxy-4-methoxyphenyl)-2-(methylsulfonyl)ethyl]-4,6-dioxo-5,6-dihydro-4H-thieno[3,4-c]pyrrole-1-yl]acetamide prepared according to the process in Example 1 was tested.
About 25 mg of crystal form I of (S)—N-[5-[1-(3-ethoxy-4-methoxyphenyl)-2-(methylsulfonyl)ethyl]-4,6-dioxo-5,6-dihydro-4H-thieno[3,4-c]pyrrole-1-yl]acetamide was added to 900 mL of water. The mixture was stirred at a rotating speed of 100/minute at 37° C. for 90 minutes. The supernatant was filtered and diluted. The concentration of the diluted solution (a mg/mL) was determined by ultraviolet spectrophotometer. The dissolution rate was calculated according to the formula 900a/25×100%.

[4] = High temperature stability and high temperature and high humidity stability; details: for Relevant Substance Contents after 1 Month: storage at 40° C.
Protocol: High Temperature Stability and High Temperature and High Humidity Stability Crystal form I of (S)—N-[5-[1-(3-ethoxy-4-methoxyphenyl)-2-(methylsulfonyl)ethyl]-4,6-dioxo-5,6-dihydro-4H-thieno[3,4-c]pyrrole-1-yl]acetamide was placed at 40° C. (high temperature) or at 40° C. and Rh=75% (high temperature and high humidity) for 1 month. Relevant substance contents of crystal form I of (S)—N-[5-[1-(3-ethoxy-4-methoxyphenyl)-2-(methylsulfonyl)ethyl]-4,6-dioxo-5,6-dihydro-4H-thieno[3,4-c]pyrrole-1-yl]acetamide were tested after 1 month.

## CCOc1cc([C@@H](CS(C)(=O)=O)N2C(=O)c3csc(NC(C)=O)c3C2=O)ccc1OC [crystal form I, (S)—N-[5-[1-(3-ethoxy-4-methoxyphenyl)-2-(methylsulfonyl)ethyl]-4,6-dioxo-5,6-dihydro-4H-thieno[3,4-c]pyrrole-1-yl]acetamide]
Illumination stability; 4500 lux illumination box
  Relevant Substance Contents after 1 Month: 0.06%
Illumination stability; 4500 lux, 1 month
  Chemical stability under illumination conditions: good chemical stability
Illumination stability; before illumination
  Relevant Substance Contents at Day 0: 0.06%
[1]
  Pressure stability (DSC curve of pressed powder compared with FIG. 2): good stability
[2]
  Crystal form stability under high humidity conditions: good crystal form stability
[3]; time 15 min
  Dissolution Rate: 40.0%
[3]; time 30 min
  Dissolution Rate: 55.9%
[3]; time 45 min
  Dissolution Rate: 65.2%
[3]; time 60 min
  Dissolution Rate: 71.4%
[3]; time 75 min
  Dissolution Rate: 75.5%
[3]; time 90 min
  Dissolution Rate: 78.0%
[4]; 40° C. or 40° C. and RH 75%, 1 month
  Chemical stability under high temperature and high-temperature and high-humidity conditions: good chemical stability
[4]; before storage
  Relevant Substance Contents at Day 0: 0.06%
[4]
  Relevant Substance Contents after 1 Month: 0.07%
[4]; RH = 75%
  Relevant Substance Contents after 1 Month: 0.09%
